Assay results published in BindingDB's records for doi:10.1021/np8001145 (Kaohsiung Medical University, 2008).
pIC50: −log10 of the molar value.

Target: Xanthine dehydrogenase/oxidase (Homo sapiens, UniProt P47989)
Test: Inhibition of xanthine oxidase

Xanthine dehydrogenase/oxidase, sequence (P47989 whole entry): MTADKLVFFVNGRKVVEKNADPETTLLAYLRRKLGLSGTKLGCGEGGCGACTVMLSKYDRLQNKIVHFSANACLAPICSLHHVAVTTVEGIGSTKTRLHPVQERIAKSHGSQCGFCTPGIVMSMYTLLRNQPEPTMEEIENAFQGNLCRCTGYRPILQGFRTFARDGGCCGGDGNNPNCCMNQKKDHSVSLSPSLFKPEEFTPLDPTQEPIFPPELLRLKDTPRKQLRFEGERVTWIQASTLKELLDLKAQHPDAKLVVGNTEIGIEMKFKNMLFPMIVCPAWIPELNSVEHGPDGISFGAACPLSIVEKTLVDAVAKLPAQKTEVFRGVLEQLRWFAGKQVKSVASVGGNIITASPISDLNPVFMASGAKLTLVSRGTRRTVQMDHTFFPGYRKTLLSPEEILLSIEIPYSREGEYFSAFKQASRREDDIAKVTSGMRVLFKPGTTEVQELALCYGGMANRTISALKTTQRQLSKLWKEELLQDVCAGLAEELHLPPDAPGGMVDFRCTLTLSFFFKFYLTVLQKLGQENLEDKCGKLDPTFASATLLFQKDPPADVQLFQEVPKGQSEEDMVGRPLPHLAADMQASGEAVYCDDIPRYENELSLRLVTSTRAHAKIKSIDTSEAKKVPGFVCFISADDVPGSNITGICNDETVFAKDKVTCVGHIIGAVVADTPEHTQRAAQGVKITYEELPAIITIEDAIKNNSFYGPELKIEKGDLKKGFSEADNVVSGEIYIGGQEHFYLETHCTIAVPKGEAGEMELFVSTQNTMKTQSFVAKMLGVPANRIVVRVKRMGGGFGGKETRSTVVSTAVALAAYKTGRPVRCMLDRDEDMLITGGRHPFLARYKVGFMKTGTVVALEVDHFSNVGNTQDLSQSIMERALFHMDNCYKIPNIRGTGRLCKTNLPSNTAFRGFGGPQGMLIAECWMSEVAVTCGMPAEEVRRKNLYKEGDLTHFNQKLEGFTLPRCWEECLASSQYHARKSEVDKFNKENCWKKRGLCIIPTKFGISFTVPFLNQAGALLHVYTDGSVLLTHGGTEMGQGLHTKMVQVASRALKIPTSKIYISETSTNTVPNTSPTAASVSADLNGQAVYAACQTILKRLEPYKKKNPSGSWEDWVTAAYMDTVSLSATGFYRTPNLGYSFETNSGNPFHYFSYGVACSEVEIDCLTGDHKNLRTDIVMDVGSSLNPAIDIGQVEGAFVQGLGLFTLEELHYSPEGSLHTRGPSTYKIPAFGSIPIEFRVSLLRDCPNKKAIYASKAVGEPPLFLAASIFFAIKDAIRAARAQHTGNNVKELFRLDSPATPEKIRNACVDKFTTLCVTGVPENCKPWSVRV

pIC50: 4.38
Compound: CCC(C)C(=O)C1C(=O)[C@@](C)(CC=C(C)C)C(=O)[C@@]2(C[C@H]3[C@H](CC[C@@]3(C)O)[C@](C)(O)C2)C1=O (stereo partly specified)
